Data on two molecules can be found in patent US10124035B2, “DISC-1 pathway activators in the control of neurogenesis” (Massachusetts Institute of Technology, priority 2008, dated 2018).

“Also recorded” adds a separate entry of the source.

The subject of data set [1] is DISC1 knockdown AHP cells. The data set can be described thus: BrdU incorporation in DISC1 knockdown progenitor cells. Type of data set: cell-based. Conditions: SB-216763 5 μM for 16 hours, 10 μM BrdU for 2 hours. The method, then: Primary neural stem cells from E14 brains were infected with control or DISC1 shRNA lentiviruses. 48 hours after to transduction, cells were treated with vehicle or SB-216763 (5 μM) for 16 hours and then pulsed with 10 μM BrdU for 2 hours. Shown is percentage of GFP and BrdU double positive cells to total GFP positive cells (n=3, p<0.05). b. […] 1.5 μg of vector or WT-DISC1 was cotransfected with 0.5 μg control or DISC1 shRNA-2, 0.1 μg TCF reporter, and 10 ng pRL-TK vector into 293T cells. 48 hours after transfection, Wnt3a conditional medium with vehicle, SB-216763, or AR-A104418 was added for another 16 hours.
If DISC1 functions to inhibit GSK3β activity, the negative effects of DISC1 silencing on proliferation should be alleviated by GSK3β loss-of-function. We examined the consequence of treating DISC1 knockdown AHP cells with SB-216763, a specific chemical inhibitor of GSK3β. […] These experiments further support a role of DISC1 in controlling cell proliferation via modulation of GSK3β.

Another data set has as its system AHPs. The data set is described as follows: Immunoblot of β-catenin and cyclin D1 in transduced AHPs. It counts as cell-based. An excerpt: • Mice. Swiss Webster pregnant female mice were purchased from Taconic (Hudson, N.Y.). • Cell Culture. AHPs were kindly provided by Dr. Gage (Lie, D. C. et al. Wnt signaling to regulates adult hippocampal neurogenesis. Nature 437, 1370-5 (2005)) and cultured under conditions described previously (Palmer, T. D., Takahashi, J. & Gage, F. H. The adult rat hippocampus contains primordial neural stem cells. Mol Cell Neurosci 8, 389-404 (1997)). Primary neural progenitors were isolated from E14 mouse embryos and cultured as described previously (Sanada, K. & Tsai, L. H. G protein betagamma subunits and AGS3 control spindle orientation and asymmetric cell fate of cerebral cortical progenitors. Cell 122, 119-31 (2005)). N2a and 293T cells were cultured in DMEM medium containing 10% FBS, L-glutamine, and penicillin/streptomycin. Wnt3a expressing L cells and untransfected L cells were obtained from ATCC (Manassas, Va.). Wnt3a conditional medium was produced according to the ATCC protocol. To induce AHP differentiation, FGF2 was removed from the culture medium and 1 μM retinoic acid/1% FBS was added to the medium for 4 days. • Reagents. Recombinant Wnt3a protein was obtained from Chemicon (Rosemont, Ill.). FGF2 was obtained from PeproTech (Rocky Hill, N.J.). Recombinant GST-GSK3β was obtained from Active Motif (Carlsbad, Calif.). Recombinant GST-β-catenin and GST-axin were obtained from Millipore (Billerica, Mass.). The GSK313 inhibitor, SB-216763, AR-A104418 and His-GSK3β, were obtained from Sigma-Aldrich (Sigma-Aldrich, St. Louis, Mo.). L803-MTS was obtained from Calbiochem (San Diego, Calif.). GST-AKT1 was obtained from Cell Signaling (Beverly, Mass.). GST-CASK-1 (CASK fragment from 316-415aa), GST-CASK-2 (CASK fragment from 777-974aa), and GST-p25 proteins were kindly provided by Dr. B. A. Samuels. Mouse DISC1 peptidel (40-78aa: GYMRSTAGSG IGFLSPAVGMPHPSSAG LTGQQSQHSQS; SEQ ID NO: 1) and Mouse DISC1 peptide 2 (195-238aa, […] GERGEAEGCLPSREAE; SEQ ID NO: 2) were synthesized by Chi Scientific (Maynard, Mass.). • Antibodies. […]

In data set [2] the test system is DISC1 shRNA infected mice. The data set is described as follows: Elevated plus-maze. Type of data set: in vivo, mouse. Conditions: lentivirus in adult dentate gyrus. Here is the method:
Alterations in neurogenesis are implicated in the development of depression and other abnormal behaviors. To examine the behavioral consequences of disrupting the DICS1/GSK3β pathway, we silenced DISC1 expression in the adult dentate gyms and evaluated behavioral consequences. Four weeks after the injection of control or DISC1 shRNA-1 lentivirus, mice were treated with vehicle or SB-216763 (2 mg/kg i.p.) every other day for 10 days. […] DISC1 shRNA injected mice traveled a greater distance and spent more time moving in a novel open field than control mice (FIG. 17A). These behaviors were normalized by SB-216763 treatment. We further tested whether DISC1 loss-of-function had consequences on depression-like behavior in the forced swim test. […] Importantly, swimming velocity was unchanged. […] Thus, increased GSK3β activity caused by DISC1 loss-of-function is associated with schizophrenia- and depression-like behaviors.

For the molecule `Cn1cc(C2=C(c3ccc(Cl)cc3Cl)C(=O)NC2=O)c2ccccc21` [SB-216763], the “cell proliferation by BrdU incorporation in DISC1 knockdown cells” value in data set [1] is “restored the cell proliferation impaired by DISC1 knockdown; also recorded: can rescue DISC-1 knockdown-induced proliferation defects”.

Regarding “DISC1 shRNA-1: shRNA targeting rat and mouse DISC1, SEQ ID NO:4, in pLentiLox 3.7 vector (GGCAAACACTGTGAAGTGC)”, in the data set with AHPs, the “reduction of Cyclin D1 levels” value came out at 50% and the β-catenin levels is reported as 35 % to control. For the same molecule, in data set [2], the “anxiety in elevated plus-maze” value was “did not display increased anxiety”.
